Key:
Experiment in all cases: Post-emergence herbicidal effect, greenhouse pot test
ALOMY = assay type: in vivo, Alopecurus myosuroides; conditions: visual rating about 3 weeks after treatment; for pest or weed control at 320 g/ha: Alopecurus myosuroides, 504 h, read-out: Post-emergence effect against ALOMY
Outline: (§1)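 Greenhouse pot test: weeds and crops sown in sandy loam, sprayed post-emergence at one-leaf stage (2–3 weeks after sowing) with WP or EC formulations plus 0.5% additive at 600 l/ha water, rates 20–320 g/ha. Visual rating about 3 weeks later versus untreated controls (100% = dead, 0% = as control).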

VERPE = assay type: in vivo, Veronica persica
Outline: as §1

DIGSA = assay type: in vivo, Digitaria sanguinalis; conditions: visual rating about 3 weeks after treatment
Outline: as §1

SETVI = assay type: in vivo, Setaria viridis
Outline: as §1

MATIN = assay type: in vivo, Tripleurospermum inodorum
Outline: as §1

POLCO = assay type: in vivo, Fallopia convolvulus
Outline: as §1

AVEFA = assay type: in vivo, Avena fatua; conditions: visual rating about 3 weeks after treatment
Outline: as §1

ABUTH = assay type: in vivo, Abutilon theophrasti; conditions: visual rating about 3 weeks after treatment; for pest or weed control at 80 g/ha / pest or weed control at 320 g/ha: Abutilon theophrasti, 504 h, read-out: Post-emergence effect against ABUTH
Outline: as §1

ECHCG = assay type: in vivo, Echinochloa crus-galli; conditions: for pest or weed control at 80 g/ha / pest or weed control at 320 g/ha: read-out: Post-emergence effect against ECHCG in %
Outline: as §1

KCHSC = assay type: in vivo
Outline: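 Greenhouse plants in sandy loam, sprayed post-emergence at the one-leaf stage (2–3 weeks after sowing) with WP or EC formulations in water plus 0.5% additive at 600 l/ha. Rates 20 to 320 g/ha. Activity rated visually after about 3 weeks against untreated controls (0% like control, 100% dead).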

AMARE = assay type: in vivo, Amaranthus retroflexus; conditions: visual rating about 3 weeks after treatment
Outline: as §1

LOLRI = assay type: in vivo, Lolium rigidum; conditions: for pest or weed control at 320 g/ha: Lolium rigidum, 504 h, read-out: Post-emergence effect against LOLRI in %
Outline: as §1

PHBPU = assay type: in vivo, Ipomoea purpurea; conditions: for pest or weed control at 20 g/ha / pest or weed control at 80 g/ha / pest or weed control at 320 g/ha: Ipomoea purpurea, 504 h, read-out: Post-emergence effect against PHBPU in %
Outline: as §1

VIOTR = assay type: in vivo, Viola tricolor
Outline: as §1

[1] = Veronica persica, 504 h, 320 g/ha, read-out: Post-emergence effect against VERPE in %
[2] = Digitaria sanguinalis, 504 h, 320 g/ha, read-out: Post-emergence effect against DIGSA
[3] = Setaria viridis, 504 h, 320 g/ha, read-out: Post-emergence effect against SETVI in %
[4] = Fallopia convolvulus, 504 h, 320 g/ha, read-out: Post-emergence effect against POLCO in %
[5] = Avena fatua, 504 h, 320 g/ha, read-out: Post-emergence effect against AVEFA
[6] = Echinochloa crus-galli, 504 h, 80 g/ha
[7] = Echinochloa crus-galli, 504 h, 320 g/ha
[8] = 504 h, read-out: Post-emergence effect against KCHSC in %
[9] = 504 h, 320 g/ha, read-out: Post-emergence effect against KCHSC in %
[10] = Amaranthus retroflexus, 504 h, 80 g/ha, read-out: Post-emergence effect against AMARE
[11] = Amaranthus retroflexus, 504 h, 320 g/ha, read-out: Post-emergence effect against AMARE

SMILES: CCOC(=O)C(OCC)Oc1nn(-c2ccccc2F)c(-c2ccc(F)nc2)c1Br (single isomer, unassigned) [Example I-66, Ethyl (2R*)-{[4-bromo-1-(2-fluorophenyl)-5-(6-fluoropyridin-3-yl)-1H-pyrazol-3-yl]oxy}(ethoxy)acetate]
- pest or weed control at 320 g/ha (ALOMY; 320 g/ha): 90%
- pest or weed control at 80 g/ha (VERPE; Veronica persica, 504 h, 80 g/ha, read-out: Post-emergence effect against VERPE in %): 80%
- pest or weed control at 320 g/ha (VERPE; [1]): 90%
- pest or weed control at 320 g/ha (DIGSA; [2]): 90%
- pest or weed control at 320 g/ha (SETVI; [3]): 90%
- pest or weed control at 80 g/ha (MATIN; Tripleurospermum inodorum, 504 h, 80 g/ha, read-out: Post-emergence effect against MATIN in %): 80%
- pest or weed control at 320 g/ha (MATIN; Tripleurospermum inodorum, 504 h, 320 g/ha, read-out: Post-emergence effect against MATIN in %): 90%
- pest or weed control at 320 g/ha (POLCO; [4]): 80%
- pest or weed control at 320 g/ha (AVEFA; [5]): 80%
- pest or weed control at 80 g/ha (ABUTH; 80 g/ha): 80%
- pest or weed control at 320 g/ha (ABUTH; 320 g/ha): 90%
- pest or weed control at 80 g/ha (ECHCG; [6]): 90%
- pest or weed control at 320 g/ha (ECHCG; [7]): 90%
- pest or weed control at 80 g/ha (KCHSC; [8]): 80%
- pest or weed control at 320 g/ha (KCHSC; [9]): 90%
- pest or weed control at 80 g/ha (AMARE; [10]): 80%
- pest or weed control at 320 g/ha (AMARE; [11]): 80%
- pest or weed control at 320 g/ha (LOLRI; 320 g/ha): 90%
- pest or weed control at 20 g/ha (PHBPU; 20 g/ha): 80%
- pest or weed control at 80 g/ha (PHBPU; 80 g/ha): 80%
- pest or weed control at 320 g/ha (PHBPU; 320 g/ha): 90%

SMILES: COC(=O)CCOC(=O)C(OC)Oc1nn(-c2cc(F)ccc2F)c(-c2cncc(F)c2)c1C1CC1 (single isomer, unassigned) [Example I-79]
- Post-emergence effect against ALOMY (ALOMY; 80 g/ha): 80%
- Post-emergence effect against ALOMY (ALOMY; 320 g/ha): 90%
- Post-emergence effect against VERPE in % (VERPE; 20 g/ha): 90%
- Post-emergence effect against VERPE in % (VERPE; 80 g/ha): 90%
- Post-emergence effect against VERPE in % (VERPE; 320 g/ha): 90%
- Post-emergence effect against DIGSA (DIGSA; 320 g/ha): 80%
- Post-emergence effect against SETVI in % (SETVI; 20 g/ha): 90%
- Post-emergence effect against SETVI in % (SETVI; 80 g/ha): 90%
- Post-emergence effect against SETVI in % (SETVI; 320 g/ha): 90%
- Post-emergence effect against MATIN in % (MATIN; 80 g/ha): 80%
- Post-emergence effect against MATIN in % (MATIN; 320 g/ha): 80%
- Post-emergence effect against POLCO in % (POLCO; 80 g/ha): 90%
- Post-emergence effect against POLCO in % (POLCO; 320 g/ha): 90%
- Post-emergence effect against AVEFA (AVEFA; 80 g/ha): 90%
- Post-emergence effect against AVEFA (AVEFA; 320 g/ha): 90%
- Post-emergence effect against ABUTH (ABUTH; 20 g/ha): 80%
- Post-emergence effect against ABUTH (ABUTH; 80 g/ha): 80%
- Post-emergence effect against ABUTH (ABUTH; 320 g/ha): 90%
- Post-emergence effect against ECHCG (ECHCG; 20 g/ha, visual rating about 3 weeks after treatment): 80%
- Post-emergence effect against ECHCG in % (ECHCG; 80 g/ha): 90%
- Post-emergence effect against ECHCG in % (ECHCG; 320 g/ha): 90%
- Post-emergence effect against VIOTR in % (VIOTR; 20 g/ha): 90%
- Post-emergence effect against VIOTR in % (VIOTR; 80 g/ha): 90%
- Post-emergence effect against VIOTR in % (VIOTR; 320 g/ha): 90%
- Post-emergence effect against KCHSC in % (KCHSC; 320 g/ha): 80%
- Post-emergence effect against AMARE (AMARE; 20 g/ha): 80%
- Post-emergence effect against AMARE (AMARE; 80 g/ha): 80%
- Post-emergence effect against AMARE (AMARE; 320 g/ha): 80%
- Post-emergence effect against LOLRI in % (LOLRI; 80 g/ha): 90%
- Post-emergence effect against LOLRI in % (LOLRI; 320 g/ha): 90%
- Post-emergence effect against PHBPU in % (PHBPU; 20 g/ha): 90%
- Post-emergence effect against PHBPU in % (PHBPU; 80 g/ha): 90%
- Post-emergence effect against PHBPU in % (PHBPU; 320 g/ha): 90%

SMILES: COC(=O)C(OC)Oc1nn(-c2ncccc2F)c(-c2cncc(F)c2)c1I (stereo not drawn) [Example I-72]
- pest or weed control at 320 g/ha (ALOMY; 320 g/ha): 90%
- pest or weed control at 320 g/ha (VERPE; [1]): 90%
- pest or weed control at 80 g/ha (DIGSA; Digitaria sanguinalis, 504 h, 80 g/ha, read-out: Post-emergence effect against DIGSA): 90%
- pest or weed control at 320 g/ha (DIGSA; [2]): 90%
- pest or weed control at 20 g/ha (SETVI; Setaria viridis, 504 h, 20 g/ha, read-out: Post-emergence effect against SETVI in %): 90%
- pest or weed control at 80 g/ha (SETVI; Setaria viridis, 504 h, 80 g/ha, read-out: Post-emergence effect against SETVI in %): 90%
- pest or weed control at 320 g/ha (SETVI; [3]): 90%
- pest or weed control at 20 g/ha (POLCO; Fallopia convolvulus, 504 h, 20 g/ha, read-out: Post-emergence effect against POLCO in %): 80%
- pest or weed control at 80 g/ha (POLCO; Fallopia convolvulus, 504 h, 80 g/ha, read-out: Post-emergence effect against POLCO in %): 80%
- pest or weed control at 320 g/ha (POLCO; [4]): 90%
- pest or weed control at 80 g/ha (AVEFA; Avena fatua, 504 h, 80 g/ha, read-out: Post-emergence effect against AVEFA): 90%
- pest or weed control at 320 g/ha (AVEFA; [5]): 90%
- pest or weed control at 80 g/ha (ABUTH; 80 g/ha): 80%
- pest or weed control at 320 g/ha (ABUTH; 320 g/ha): 90%
- pest or weed control at 20 g/ha (ECHCG; Echinochloa crus-galli, 504 h, 20 g/ha, visual rating about 3 weeks after treatment, read-out: Post-emergence effect against ECHCG): 90%
- pest or weed control at 80 g/ha (ECHCG; [6]): 90%
- pest or weed control at 320 g/ha (ECHCG; [7]): 90%
- pest or weed control at 20 g/ha (VIOTR; Viola tricolor, 504 h, 20 g/ha, read-out: Post-emergence effect against VIOTR in %): 90%
- pest or weed control at 80 g/ha (VIOTR; Viola tricolor, 504 h, 80 g/ha, read-out: Post-emergence effect against VIOTR in %): 90%
- pest or weed control at 320 g/ha (VIOTR; Viola tricolor, 504 h, 320 g/ha, read-out: Post-emergence effect against VIOTR in %): 90%
- pest or weed control at 20 g/ha (KCHSC; 504 h, 20 g/ha, read-out: Post-emergence effect against KCHSC in %): 90%
- pest or weed control at 80 g/ha (KCHSC; [8]): 90%
- pest or weed control at 320 g/ha (KCHSC; [9]): 90%
- pest or weed control at 20 g/ha (AMARE; Amaranthus retroflexus, 504 h, 20 g/ha, read-out: Post-emergence effect against AMARE): 80%
- pest or weed control at 80 g/ha (AMARE; [10]): 80%
- pest or weed control at 320 g/ha (AMARE; [11]): 80%
- pest or weed control at 320 g/ha (LOLRI; 320 g/ha): 90%
- pest or weed control at 20 g/ha (PHBPU; 20 g/ha): 80%
- pest or weed control at 80 g/ha (PHBPU; 80 g/ha): 90%
- pest or weed control at 320 g/ha (PHBPU; 320 g/ha): 90%

— patent US20240391862A1, “(1,4,5-TRISUBSTITUTED-1H-PYRAZOL-3-YL)OXY-2-ALKOXY ALKYL ACIDS AND THEIR DERIVATIVES, THEIR SALTS AND THEIR USE AS HERBICIDAL AGENTS” (Bayer AKtiengesellschaft, priority 2021, published 2024)
